From US9328083B2, “2-aminated methylene or 2-esterified methylene tanshinone derivatives, and preparation method and application thereof” (HANGZHOU BENSHENG PHARMACEUTICAL CO., LTD., priority 2011, dated 2016)
Values after ≈ are worked out from the molar mass of the structure shown.

How the values were obtained:
[1] = test system: H9 (acute lymphoblastic leukemia, ALL); test: MTT growth inhibition of leukemia cells, 72 h; assay type: cell-based, human; settings: Homo sapiens, H9, 72 h; for IC50: read-out: IC50; for IC90: read-out: IC90
Outline: (§1)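 6000 cells/well, RPMI-1640 + 10% FBS; compounds added day 2 (DMSO stock 10 mg/mL, diluted in medium); 72 h, 37 °C, 5% CO2; MTT read-out of viable cells.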

[2] = test system: Jurkat (acute lymphoblastic leukemia, ALL); test: MTT growth inhibition of leukemia cells, 72 h; assay type: cell-based, human; settings: for IC50 / IC90: Homo sapiens, 72 h; for IC50: read-out: IC50; for IC90: read-out: IC90
Outline: as §1

[3] = test system: K562/adr (drug-resistant, chronic myeloid leukemia, CML); test: MTT growth inhibition of leukemia cells, 72 h; assay type: cell-based, human; settings: Homo sapiens, K562/Adr; for IC50: read-out: IC50; for IC90: read-out: IC90
Outline: as §1

[4] = test system: Kasumi-1 (acute myeloid leukemia M2 type, AML-M2); test: MTT growth inhibition of leukemia cells, 72 h; assay type: cell-based, human; settings: Homo sapiens, Kasumi-1, 72 h; for IC50: read-out: IC50; for IC90: read-out: IC90
Outline: as §1

[5] = test system: NB4 (acute promyelocytic leukemia, AML); test: MTT growth inhibition of leukemia cells, 72 h; assay type: cell-based, human; settings: Homo sapiens, NB4, 72 h; for IC50: read-out: IC50; for IC90: read-out: IC90
Outline: as §1

[6] = test system: RPMI8226 (multiple myeloma); test: MTT growth inhibition of multiple myeloma cells, 72 h; assay type: cell-based, human; settings: Homo sapiens, RPMI 8226, 72 h; for IC50: read-out: IC50; for IC90: read-out: IC90
Outline: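 Viability read by MTT after 72 h at 37° C, 5% CO2: compounds from a 10 mg/mL DMSO stock were diluted in medium and added at several concentrations to 6000 RPMI8226 cells per well in 1640 medium plus 10% FBS.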

A549 (human lung cancer) = test: MTT growth inhibition of human solid tumor cells, 72 h; assay type: cell-based; settings: Homo sapiens, A549, 72 h; for IC50: read-out: IC50; for IC90: read-out: IC90
Outline: (§2)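 Dosing: several concentrations of each derivative, prepared by medium dilution of a DMSO stock (10 mg/mL). Cells plated at 4000/well, 24 h prior. Viability determined at end.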

[7] = test system: Becap37 (human breast cancer cell); test: as above; assay type: cell-based; settings: Homo sapiens, Becap-37, 72 h; for IC50: read-out: IC50; for IC90: read-out: IC90
Outline: as §2

[8] = test system: CNE (nasopharyngeal carcinoma cell); test: as above; assay type: cell-based; settings: Homo sapiens; for IC50: read-out: IC50; for IC90: read-out: IC90
Outline: as §2

[9] = test system: CaES-17 (esophageal cancer cell); test: as above; assay type: cell-based; settings: for IC50 / IC90: Homo sapiens, CaEs17, CaEs-17, 72 h; for IC50: read-out: IC50; for IC90: read-out: IC90
Outline: as §2

[10] = test system: Hela (human cervical cancer cell); test: as above; assay type: cell-based; settings: Homo sapiens, HeLa, 72 h; for IC50: read-out: IC50; for IC90: read-out: IC90
Outline: as §2

[11] = test system: Hep G2 (human liver cancer cell); test: as above; assay type: cell-based; settings: Homo sapiens, HepG2, Hep G2, 72 h; for IC50: read-out: IC50; for IC90: read-out: IC90
Outline: as §2

[12] = test system: Hep-2 (laryngeal carcinoma); test: as above; assay type: cell-based; settings: Homo sapiens, HEp-2, 72 h; for IC50: read-out: IC50; for IC90: read-out: IC90
Outline: as §2

MG63 (osteosarcoma) = test: as above; assay type: cell-based; settings: Homo sapiens, MG-63, 72 h; for IC50: read-out: IC50; for IC90: read-out: IC90
Outline: as §2

[13] = test system: MGC 803 (human gastric cancer cell); test: as above; assay type: cell-based; settings: Homo sapiens, MGC-803, 72 h; for IC50: read-out: IC50; for IC90: read-out: IC90
Outline: as §2

[14] = test system: PANC-1 (pancreatic cancer); test: as above; assay type: cell-based; settings: for IC50 / IC90: Homo sapiens, PANC-1, 72 h; for IC50: read-out: IC50; for IC90: read-out: IC90
Outline: as §2

PC-3 (prostate cancer) = test: as above; assay type: cell-based; settings: Homo sapiens, PC-3, 72 h; for IC50: read-out: IC50; for IC90: read-out: IC90
Outline: as §2

[15] = test system: RKO (human colon adenocarcinoma cell); test: as above; assay type: cell-based; settings: Homo sapiens; for IC50: read-out: IC50; for IC90: read-out: IC90
Outline: as §2

[16] = test system: SK-OV-3 (ovarian cancer cell); test: as above; assay type: cell-based; settings: Homo sapiens, SK-OV-3, 72 h; for IC50: read-out: IC50; for IC90: read-out: IC90
Outline: as §2

[17] = test system: U87 MG (malignant glioma cell); test: as above; assay type: cell-based; settings: Homo sapiens, U-87 MG, U87-MG, 72 h; for IC50: read-out: IC50; for IC90: read-out: IC90
Outline: as §2

SMILES: Cc1c(CN(C)CCO)oc2c1C(=O)C(=O)c1c-2ccc2c(C)cccc12 [BS-TA-B17]
- IC50 [1]: 0.45 µg/mL (≈ 1.24 µM)
- IC90 [1]: 0.96 µg/mL (≈ 2.64 µM)
- IC50 [2]: 0.16 µg/mL (≈ 0.44 µM)
- IC90 [2]: 0.36 µg/mL (≈ 0.991 µM)
- improvement of anti-Jurkat activity as compared with tanshinone I ([2]; vs tanshinone I): more than 10 fold
- IC50 [3]: 0.31 µg/mL (≈ 0.853 µM)
- IC90 [3]: 0.86 µg/mL (≈ 2.37 µM)
- IC50 [4]: 0.12 µg/mL (≈ 0.33 µM)
- IC90 [4]: 0.23 µg/mL (≈ 0.633 µM)
- IC50 [5]: 0.14 µg/mL (≈ 0.385 µM)
- IC90 [5]: 0.41 µg/mL (≈ 1.13 µM)
- IC50 [6]: 0.39 µg/mL (≈ 1.07 µM)
- IC90 [6]: 0.8 µg/mL (≈ 2.2 µM)
- IC50 (A549 (human lung cancer)): 0.83 µg/mL (≈ 2.28 µM)
- IC90 (A549 (human lung cancer)): 3.13 µg/mL (≈ 8.61 µM)
- IC50 [7]: 0.76 µg/mL (≈ 2.09 µM)
- IC90 [7]: 1.77 µg/mL (≈ 4.87 µM)
- IC50 [8]: 1.4 µg/mL (≈ 3.85 µM)
- IC90 [8]: 3 µg/mL (≈ 8.26 µM)
- improvement of anti-CaES-17 activity as compared with tanshinone I ([9]; CaES-17, vs tanshinone I): more than 7 fold
- IC50 [9]: 0.45 µg/mL (≈ 1.24 µM)
- IC90 [9]: 0.91 µg/mL (≈ 2.5 µM)
- IC50 [10]: 0.67 µg/mL (≈ 1.84 µM)
- IC90 [10]: 1.8 µg/mL (≈ 4.95 µM)
- IC50 [11]: 0.56 µg/mL (≈ 1.54 µM)
- IC90 [11]: 1.82 µg/mL (≈ 5.01 µM)
- IC50 [12]: 0.87 µg/mL (≈ 2.39 µM)
- IC90 [12]: 2.79 µg/mL (≈ 7.68 µM)
- IC50 (MG63 (osteosarcoma)): 0.78 µg/mL (≈ 2.15 µM)
- IC90 (MG63 (osteosarcoma)): 1.76 µg/mL (≈ 4.84 µM)
- IC50 [13]: 0.37 µg/mL (≈ 1.02 µM)
- IC90 [13]: 2.94 µg/mL (≈ 8.09 µM)
- IC50 [14]: 0.27 µg/mL (≈ 0.743 µM)
- IC90 [14]: 2.6 µg/mL (≈ 7.15 µM)
- improvement of anti-PANC-1 activity as compared with tanshinone I ([14]; PANC-1, vs tanshinone I): more than 10 fold
- IC50 (PC-3 (prostate cancer)): 0.63 µg/mL (≈ 1.73 µM)
- IC90 (PC-3 (prostate cancer)): 2 µg/mL (≈ 5.5 µM)
- IC50 [15]: 0.125 µg/mL (≈ 0.344 µM)
- IC90 [15]: 1.3 µg/mL (≈ 3.58 µM)
- IC50 [16]: 1.44 µg/mL (≈ 3.96 µM)
- IC90 [16]: 1.97 µg/mL (≈ 5.42 µM)
- IC50 [17]: 0.76 µg/mL (≈ 2.09 µM)
- IC90 [17]: 1.82 µg/mL (≈ 5.01 µM)

SMILES: CCCCNCc1oc2c(c1C)C(=O)C(=O)c1c-2ccc2c(C)cccc12 [BS-TA-B10]
- IC50 [1]: 6 µg/mL (≈ 16.6 µM)
- IC90 [1]: > 16 µg/mL
- IC50 [2]: > 16 µg/mL
- IC90 [2]: > 16 µg/mL
- IC50 [3]: 0.76 µg/mL (≈ 2.1 µM)
- IC90 [3]: 1.8 µg/mL (≈ 4.98 µM)
- IC50 [4]: 0.4 µg/mL (≈ 1.11 µM)
- IC90 [4]: 0.92 µg/mL (≈ 2.55 µM)
- IC50 [5]: 5.79 µg/mL (≈ 16 µM)
- IC90 [5]: 15.4 µg/mL (≈ 42.7 µM)
- IC50 [6]: 15.8 µg/mL (≈ 43.8 µM)
- IC90 [6]: > 16 µg/mL
- IC50 (A549 (human lung cancer)): 1.28 µg/mL (≈ 3.54 µM)
- IC90 (A549 (human lung cancer)): 6 µg/mL (≈ 16.6 µM)
- IC50 [7]: > 16 µg/mL
- IC90 [7]: > 16 µg/mL
- IC50 [8]: > 16 µg/mL
- IC90 [8]: > 16 µg/mL
- IC50 [9]: > 16 µg/mL
- IC90 [9]: > 16 µg/mL
- IC50 [10]: 15.6 µg/mL (≈ 43 µM)
- IC90 [10]: > 16 µg/mL
- IC50 [11]: > 16 µg/mL
- IC90 [11]: > 16 µg/mL
- IC50 [12]: 15.8 µg/mL (≈ 43.6 µM)
- IC90 [12]: > 16 µg/mL
- IC50 (MG63 (osteosarcoma)): > 16 µg/mL
- IC90 (MG63 (osteosarcoma)): > 16 µg/mL
- IC50 [13]: > 16 µg/mL
- IC90 [13]: > 16 µg/mL
- IC50 [14]: 0.88 µg/mL (≈ 2.43 µM)
- IC90 [14]: 5.82 µg/mL (≈ 16.1 µM)
- IC50 (PC-3 (prostate cancer)): > 16 µg/mL
- IC90 (PC-3 (prostate cancer)): > 16 µg/mL
- IC50 [15]: 5.47 µg/mL (≈ 15.1 µM)
- IC90 [15]: > 16 µg/mL
- IC50 [16]: > 16 µg/mL
- IC90 [16]: > 16 µg/mL
- IC50 [17]: > 16 µg/mL
- IC90 [17]: > 16 µg/mL

SMILES: Cc1c(CN2CCCN(C)CC2)oc2c1C(=O)C(=O)c1c-2ccc2c(C)cccc12 [BS-TA-B12]
- IC50 [1]: 4.11 µg/mL (≈ 10.2 µM)
- IC90 [1]: 10.5 µg/mL (≈ 26.1 µM)
- IC50 [2]: 1.78 µg/mL (≈ 4.42 µM)
- IC90 [2]: 5.91 µg/mL (≈ 14.7 µM)
- IC50 [3]: 1.5 µg/mL (≈ 3.73 µM)
- IC90 [3]: 2.79 µg/mL (≈ 6.93 µM)
- IC50 [4]: 0.89 µg/mL (≈ 2.21 µM)
- IC90 [4]: 1.9 µg/mL (≈ 4.72 µM)
- IC50 [5]: 0.94 µg/mL (≈ 2.34 µM)
- IC90 [5]: 1.9 µg/mL (≈ 4.72 µM)
- IC50 [6]: 3.72 µg/mL (≈ 9.24 µM)
- IC90 [6]: 7.13 µg/mL (≈ 17.7 µM)
- IC50 (A549 (human lung cancer)): 1.65 µg/mL (≈ 4.1 µM)
- IC90 (A549 (human lung cancer)): 4.33 µg/mL (≈ 10.8 µM)
- IC50 [7]: 3.34 µg/mL (≈ 8.3 µM)
- IC90 [7]: 7.38 µg/mL (≈ 18.3 µM)
- IC50 [8]: 0.45 µg/mL (≈ 1.12 µM)
- IC90 [8]: 0.62 µg/mL (≈ 1.54 µM)
- IC50 [9]: 0.73 µg/mL (≈ 1.81 µM)
- IC90 [9]: 1.97 µg/mL (≈ 4.89 µM)
- IC50 [10]: 1.46 µg/mL (≈ 3.63 µM)
- IC90 [10]: 3.58 µg/mL (≈ 8.89 µM)
- IC50 [11]: 3.8 µg/mL (≈ 9.44 µM)
- IC90 [11]: 7.96 µg/mL (≈ 19.8 µM)
- IC50 [12]: 4.01 µg/mL (≈ 9.96 µM)
- IC90 [12]: 9.08 µg/mL (≈ 22.6 µM)
- IC50 (MG63 (osteosarcoma)): 3.37 µg/mL (≈ 8.37 µM)
- IC90 (MG63 (osteosarcoma)): 5.49 µg/mL (≈ 13.6 µM)
- IC50 [13]: 2.48 µg/mL (≈ 6.16 µM)
- IC90 [13]: 5.05 µg/mL (≈ 12.5 µM)
- IC50 [14]: 1.06 µg/mL (≈ 2.63 µM)
- IC90 [14]: 4.16 µg/mL (≈ 10.3 µM)
- IC50 (PC-3 (prostate cancer)): 9.3 µg/mL (≈ 23.1 µM)
- IC90 (PC-3 (prostate cancer)): 11.2 µg/mL (≈ 27.8 µM)
- IC50 [15]: 0.7 µg/mL (≈ 1.74 µM)
- IC90 [15]: 5.26 µg/mL (≈ 13.1 µM)
- IC50 [16]: 2.53 µg/mL (≈ 6.29 µM)
- IC90 [16]: 3.84 µg/mL (≈ 9.54 µM)
- IC50 [17]: 1.16 µg/mL (≈ 2.88 µM)
- IC90 [17]: 3.4 µg/mL (≈ 8.45 µM)
